In patent US20190298846A1, “CELL TARGETING CONJUGATES” (LinXis B.V., priority 2016, published 2019):
pIC50: −log10 of the molar value. Square brackets hold non-standard residues; d marks the D form. Peptide text beside a SMILES is read from it. * marks the point of attachment. Dolaproine = CO[C@@H]([C@@H]1CCCN1)[C@@H](C)C(=O)O; Dil = CC[C@H](C)[C@H](NC)[C@@H](CC(=O)O)OC; X1 = O=C(CCCCCN1C(=O)C=CC1=O)NCCOCCOCCN*; NMe2Val = CC(C)[C@@H](C(=O)*)N(C)C

Experiments:
NCI-N87 tumors = test: In vivo therapy study, NCI-N87 xenografts; set-up: species or system nude mice; conditions: single bolus injection 15 mg/kg
Procedure: (§1) Body weight was measured three times per week and MTD was reached when weight loss was >10% compared with the control mice. […] For this purpose, seven groups of 8 or 9 mice with established NCI-N87 or JIMT-1 xenografts in both flanks were used. […] All mice received an i.p. bolus injection. In the study with the NCI-N87 tumors, Group 1 was the control group and received 100 μL of saline solution. […] In the study with the JIMT-1 tumors, Group 1 was the control group and received 100 μL of saline solution. […] Body weight and tumor volume were measured three times per week up to 4 months after end of treatment.

JIMT-1 tumors = test: In vivo therapy study, JIMT-1 xenografts; set-up: species or system nude mice; conditions: single bolus injection (15 mg/kg; AF conjugates 15 and 30 mg/kg), follow-up to day 125
Procedure: as §1

SKOV-3 = test: In vitro cell viability assay ([…] BLUE); type: cell-based
Procedure: (§2) BLUE® Assay (Promega). Before starting the assay, the AF-Lx and AF-Mal were quenched by incubation the compounds with 1 mol equiv. thiourea (2 hours, 37° C.) and n-acetyl-cysteine (30 minutes, 0° C.), respectively. The cells were trypsinized and plated in 96-well, flat-bottomed, tissue culture plates at day 0. On day 1, from the above mentioned compounds serial dilution series (9×4-fold dilutions) were made starting from 10 or 1000 nM (depending on type of cells and compounds) and added to the cells (in case of ADCs, concentration of the mAb was used). On day 5, the […] BLUE® reagent was added and incubated for 2 hours at 37° C., and viable cells were measured with a TeCan plate reader (Tecan Group Ltd.) at 560EX/590EM nm. […] The data were analyzed with Graphpad Prism 5 software.

NCI-N87 = test: In vitro cell viability assay ([…] BLUE); type: cell-based; conditions: concentration of the mAb for ADCs, day 5 readout
Procedure: as §2

MDA-MB-231 = test: In vitro cell viability assay ([…] BLUE); type: cell-based
Procedure: as §2

JIMT-1 = test: In vitro cell viability assay ([…] BLUE); type: cell-based
Procedure: as §2

SK-BR-3 = test: In vitro cell viability assay ([…] BLUE); type: cell-based
Procedure: as §2

all tested cell lines = test: In vitro cell viability assay, drug-linkers versus ADCs; type: cell-based; conditions: AF-Lx quenched with thiourea, AF-Mal with n-acetyl-cysteine
Procedure: Before starting the assay, the AF-Lx and AF-Mal were quenched by incubation the compounds with 1 mol equiv. thiourea (2 hours, 37° C.) and n-acetyl-cysteine (30 minutes, 0° C.), respectively. The cells were trypsinized and plated in 96-well, flat-bottomed, tissue culture plates at day 0. On day 1, from the above mentioned compounds serial dilution series (9×4-fold dilutions) were made starting from 10 or 1000 nM (depending on type of cells and compounds) and added to the cells (in case of ADCs, concentration of the mAb was used). On day 5, the […] BLUE® reagent was added and incubated for 2 hours at 37° C., and viable cells were measured with a TeCan plate reader (Tecan Group Ltd.) at 560EX/590EM nm. Fluorescence values of the samples were corrected for background of cell culture medium, the results, presented as the percentage of survival, were calculated by dividing the fluorescence values of the treated cells by the values of the untreated control cells. The data were analyzed with Graphpad Prism 5 software.

Molecule	time at which tumors started regrowth (NCI-N87 tumors) [days]	tumor growth response, in words (JIMT-1 tumors)	pIC50 (SKOV-3)	pIC50 (NCI-N87)	potency / IC50 in MDA-MB-231, in words (MDA-MB-231; HER2-negative MDA-MB-231)	pIC50 (MDA-MB-231; MDA-MB-231, HER2-negative)	pIC50 (JIMT-1; JIMT-1, T-DM1-resistant)	potency / IC50 in JIMT-1 cell line, in words (JIMT-1; T-DM1-resistant JIMT-1)	pIC50 (SK-BR-3)	potency of drug-linker lower compared to its corresponding ADC (all tested cell lines)
ado-trastuzumab emtansine [T-DM1]	20	minimal growth delay	10.89	9.98	lower IC50	6.70	8.15	an order of magnitude higher	10.68	–
[Pt(en)(AF-(4-(12-amino-3-oxo-7,10-dioxa-2,4-diazadodecyl)piperidine))Cl](Cl) [AF-Lx]	–	–	–	–	–	–	–	–	–	10^3-10^4 fold
CC[C@H](C)[C@@H]([C@@H](CC(=O)N1CCC[C@H]1[C@H](OC)[C@@H](C)C(=O)N[C@H](Cc1ccccc1)C(=O)NCCOCCOCCNC(=O)CCCCCN1C(=O)C=CC1=O)OC)N(C)C(=O)[C@@H](NC(=O)[C@H](C(C)C)N(C)C)C(C)C [AF-Mal, AF-PEG1-amide-Hex-Mal] (NMe2Val-V[Dil][Dolaproine][dF]-X1)	–	–	–	–	–	–	–	–	–	10 fold
